We go through 5 compounds from US7439271B2, “Reduction of hair growth” (The Gillette Company, priority 2001, dated 2008).

SMILES strings stand for the structures.

The test system of one test is flank organ hair growth. Put plainly: Golden Syrian hamster assay (flank organ hair mass). The class given is in vivo. To be noted: topical, thirteen applications; for % Inhibition (hair mass reduction): vs vehicle treated side. The text has this:
Male intact Golden Syrian hamsters are considered acceptable models for human beard hair growth in that they display oval shaped flank organs, one on each side, each about 8 mm. in major diameter. These organs produce fine light colored hair typical of the animal pelage found on the body. In response to androgens the flank organs produce dark coarse hair similar to male human beard hair. To evaluate the effectiveness of a composition in reducing hair growth, the flank organs of each of a group of hamsters are depilated by applying a thioglycolate based chemical depilatory (Surgex) and/or shaved. To one organ of each animal 10 μl. of vehicle alone once a day is applied, while to the other organ of each animal an equal amount of vehicle containing the compound under evaluation is applied. After thirteen applications (one application per day for five days a week), the flank organs are shaved and the amount of recovered hair (hair mass) from each is weighed. Percent-reduction of hair growth is calculated by subtracting the hair mass (mg) value of the test compound treated side from the hair mass value of the vehicle treated side; the delta value obtained is then divided by the hair mass value of the vehicle treated side, and the resultant number is multiplied by 100.
The above-described assay will be referred to herein as the “Golden Syrian hamster” assay. Preferred compositions provide a reduction in hair growth of at least about 15% and more preferably at least about 20%, when tested in the Golden Syrian hamster assay. Compositions described in Example 1 (above) were tested in the Golden Syrian hamster assay. […] AZT, a well-characterized inhibitor of reverse transcriptase, inhibits telomerase by blocking the […] of the enzyme.

The next test concerns human hair follicles. Kind of test: Human hair follicle growth assay. The class given is cell-based. To be noted: day 0 to day 6. The text has this: Tissue source—Human skin was obtained from a plastic surgeon as a by-product of face-lift procedures. Immediately after removal, the skin was placed in Williams E medium containing antibiotics and refrigerated. The Williams E medium is a commercially obtained medium which has been formulated with essential nutrients for maintaining viability of tissues or cells such as of hair follicle in an in-vitro environment.
Hair Follicle Isolation and Culture—Human hair follicles in growth phase (anagen) were isolated from face-lift tissue under a dissecting scope using a scalpel and watchmakers forceps. The skin was sliced into thin strips exposing 2-3 rows of follicles that could readily be dissected. Follicles were placed into 0.5 ml Williams E medium supplemented with 2 mM L-glutamine, 10 μg/ml insulin, 100 ng/ml hydrocortisone, 100 units penicillin, 0.1 mg/ml streptomycin and 0.25 μg/ml amphotericin B. The follicles were incubated in 24 well plates (1 follicle/well) at 37° C. in an atmosphere of 5% CO2 and 95% air. Hair follicles were videorecorded in the 24-well plates under the dissecting scope under a power of 20×. Typically, hair follicle lengths were measured on day 0 (day follicles were placed in culture) and again on day 7. When testing compounds, the compound was included in the culture medium from time 0 and remained in the medium throughout the course of the experiment.
In this system follicle cells differentiate to form hair fiber and increase in length at a rate not dissimilar from that of humans, in vivo. Typically, hair fiber from these in-vitro follicles grow about 0.3 mm/day. […] This model of human hair growth is capable of identifying inhibitors of hair growth. The selective telomerase inhibitors -I, -IV and -V were obtained from Calbiochem, La Jolla, Calif. The data in Tables II-VI below show dose-dependent inhibition of human hair follicle growth by various compounds.

For orientation: inhibition means how much of the control response was suppressed. In the case of `CC1COc2c(N3CCN(C)CC3)c(F)cc3c(=O)c(C(=O)O)cn1c23` (centres unmarked) [Ofloxacin, ofloxacin], in the test on flank organ hair growth (dose 5%), the “Left (mg): hair mass for vehicle with test compound” value is 1.56 ± .24 mg. Further, the “% Inhibition (hair mass reduction)” value in the test on flank organ hair growth (dose 5%) is listed as 39 ± 7%. Moreover, the “Length Increase (mm)” value in the test with human hair follicles (0.01 μM) was 1.51 ± .24 mm; in the test with human hair follicles (0.1 μM), 1.16 ± .12 mm; in the test with human hair follicles (1.0 μM, separate control 1.40 ± .17 mm) it was 0.43 ± .11 mm; in the test with human hair follicles (100 μM), 1.16 ± .12 mm. This compound gave an inhibition at 0.01 µM in the test on human hair follicles (Homo sapiens, 0.01 μM) of 10 ± 14%. Besides, the inhibition at 0.1 µM in the test on human hair follicles (Homo sapiens, 0.1 μM) stood at 30 ± 7%. This compound registered an inhibition at 1 µM in the test with human hair follicles (Homo sapiens, 1.0 μM, separate control 1.40 ± .17 mm) of 69 ± 8%. The compound further displayed an inhibition at 100 µM with human hair follicles (Homo sapiens, 100 μM) of 31 ± 7%.

With `C[n+]1ccc(-c2c3nc(c(-c4cc[n+](C)cc4)c4ccc([nH]4)c(-c4cc[n+](C)cc4)c4nc(c(-c5cc[n+](C)cc5)c5ccc2[nH]5)C=C4)C=C3)cc1` [TMPyP4, meso-5,10,15,20-tetrakis-(N-methyl-4-pyridy)porphine], in the test with flank organ hair growth (dose 1%), the “Left (mg): hair mass for vehicle with test compound” value was 1.73 ± .23 mg and the “% Inhibition (hair mass reduction)” value was 28 ± 8%. Further, in the test on human hair follicles (73 μM), the “% Inhibition of human hair growth” value is 52 ± 9% and the “Length Increase (mm)” value is reported as “.468 ± .09 mm”.

`O=C1c2ccc3c4ccc5c6c(ccc(c7ccc(c2c37)C(=O)N1CCN1CCCCC1)c64)C(=O)N(CCN1CCCCC1)C5=O` [Telomerase Inhibitor IV, N,N′-bis[2-(1-piperidino)ethyl]-3,4,9,10-perylenetetracarboxylic diimide]: in the test on human hair follicles (10 μM), the “% Inhibition of human hair growth” value turned out to be 10 ± 10% and the “Length Increase (mm)” value is on record as 1.39 ± .16 mm. In the test on human hair follicles (100 μM), the “% Inhibition of human hair growth” value amounted to 48 ± 8% and the “Length Increase (mm)” value is 0.80 ± .12 mm.

Regarding `C[N+]1(CCC(=O)Nc2ccc3c(c2)C(=O)c2ccc(NC(=O)CC[N+]4(C)CCCCC4CO)cc2C3=O)CCCCC1CO.[I-].[I-]` (centres unmarked) [Telomerase Inhibitor I], in the test on human hair follicles (10 μM), the “% Inhibition of human hair growth” value stood at 34 ± 6% and the “Length Increase (mm)” value was 1.18 ± .10 mm. Also, in the test on human hair follicles (100 μM), the “% Inhibition of human hair growth” value was 84 ± 5% and the “Length Increase (mm)” value is given as “.286 ± .09 mm”.

For `O=C(CCN1CCCCC1)Nc1ccc2c(c1)C(=O)c1ccc(NC(=O)CCN3CCCCC3)cc1C2=O` [Telomerase Inhibitor V, 2,6-bis[3-(N-piperidino)propionamido]anthracene-9,10-dione], in the test on human hair follicles (10 μM), the “% Inhibition of human hair growth” value turned out to be 14 ± 8% and the “Length Increase (mm)” value is 1.32 ± .13 mm. Also, in the test with human hair follicles (100 μM), the “% Inhibition of human hair growth” value worked out at 68 ± 19% and the “Length Increase (mm)” value is reported as 0.25 ± .30 mm.
